Results taken from article PMC8657075 (Journal of biotechnology, 2021).

What was measured:
[1] = target: T1, dopamine transporter (DAT) (Rattus norvegicus, UniProt P23977); experiment: [3H]GBR […] radioligand displacement, rat striatal membranes; type: binding
[2] = target: T1, dopamine transporter (DAT); experiment: [3H]GBR […] radioligand displacement; type: binding

T1 sequence (P23977 whole entry): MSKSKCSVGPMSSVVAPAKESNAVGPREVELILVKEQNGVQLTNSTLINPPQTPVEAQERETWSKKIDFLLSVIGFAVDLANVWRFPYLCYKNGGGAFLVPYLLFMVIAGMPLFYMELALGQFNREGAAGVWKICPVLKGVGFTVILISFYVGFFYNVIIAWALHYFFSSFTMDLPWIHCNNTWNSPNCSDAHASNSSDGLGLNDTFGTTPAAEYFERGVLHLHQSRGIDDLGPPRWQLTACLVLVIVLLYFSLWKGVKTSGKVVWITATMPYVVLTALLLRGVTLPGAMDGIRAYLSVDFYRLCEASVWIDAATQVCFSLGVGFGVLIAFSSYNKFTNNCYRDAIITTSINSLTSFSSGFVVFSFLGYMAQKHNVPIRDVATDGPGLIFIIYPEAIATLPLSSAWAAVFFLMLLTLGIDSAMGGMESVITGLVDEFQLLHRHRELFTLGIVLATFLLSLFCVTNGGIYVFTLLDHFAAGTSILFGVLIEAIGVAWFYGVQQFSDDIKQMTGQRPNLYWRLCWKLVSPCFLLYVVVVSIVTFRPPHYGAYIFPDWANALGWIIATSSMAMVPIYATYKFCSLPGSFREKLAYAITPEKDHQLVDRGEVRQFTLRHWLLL

Compound	Ki [1] [µM]	Ki [2] [µM]
CN1CCCC2C(c3ccccc3)C(C3=NCCCC3)C(c3ccccc3)CC21 (centres unmarked) [lobinaline]	2.54	–
lobinaline N-oxide	–	132
